Experimental data: patent publication US20210107993A1, “CARTYRIN COMPOSITIONS AND METHODS FOR USE” (Poseida Therapeutics, Inc., priority 2018, published 2021)

Experiments:
cells [1] = test: AP1903 amount for effective signaling of cells in vitro; type: cell-based; conditions: 1600 Da MW
Description: The fixed dose of AP1903 for injection used, for example, may be 0.4 mg/kg intravenously infused over 2 hours. The amount of AP1903 needed in vitro for effective signaling of cells is 10-100 nM (1600 Da MW). This equates to 16-160 μg/L or 0.016-1.6 μg/kg (1.6-160 μg/kg). Doses up to 1 mg/kg were well-tolerated in the Phase I study of AP1903 described above. Therefore, 0.4 mg/kg may be a safe and effective dose of AP1903 for this Phase I study in combination with the therapeutic cells.

cells [2] = conditions: cited from earlier work
[3] = cited from earlier work
iC9 safety switch = target: T1, iC9 safety switch (Homo sapiens, UniProt P62942, F37V); test: iC9 safety switch test: viability by flow cytometry using 7-AAD after AP1903; type: cell-based
T1 construct: expressed in transfected cells
Description: Human pan T-cells were nucleofected using an Amaxa 4D nucleofector with one of four piggyBac transposons. Modified T cells receiving the “mock” condition were nucleofected with an empty piggyBac transposon. Modified T cells received either a piggyBac transposon containing a therapeutic agent alone (a sequence encoding a CARTyrin) or a piggyBac transposon containing an integrated iC9 sequence and a therapeutic agent (a sequence encoding a CARTyrin).
To test the iC9 safety switch, each of the four modified T cells were incubated for 24 hours with 0, 0.1 nM, 1 nM, 10 nM, 100 nM or 1000 nM AP1903 (an induction agent for […]). Viability was assessed by flow cytometry using 7-aminoactinomycin D (7-AAD), a fluorescent intercalator, as a marker for cells undergoing apoptosis.
Cell viability was assessed at day 12 (see FIG. 9). […] Moreover, cell viability was assessed at day 19 (see FIG. 10). […]
A quantification of the aggregated results was performed and is provided in FIG. 11, showing the significant impact of the iC9 safety switch on the percent cell viability as a function of the concentration of the induction agent (AP1903) of the iC9 switch for each modified cell type at either day 12 (FIG. 9 and left graph) or day 19 (FIG. 10 and right graph).

Pan T cells = test: Expansion of BCMA CAR-T cells with CSR over 19 day culture; type: cell-based, human; conditions: CSR transient (mRNA) or stable (piggyBac)
Description: FIG. 36 is a graph showing that delivery of CSR enhances the expansion of CAR-T cells. CSRs were delivered to CAR-T cells either transiently by mRNA or stably by piggyBac™. Pan T cells isolated from the blood of a normal donor were genetically modified using the piggyBac™ DNA modification system and the standard Poseida process. Cells were co-electroporated in a single reaction with mRNA encoding the Super piggyBac transposase enzyme (SPB), a transposon encoding a BCMA CAR and selection gene, along with an additional mRNA encoding a CSR (either CD28z or CD2z; resulting in transient expression) or a CD19 mRNA control, or, with a transposon encoding a BCMA CAR, selection gene and a CSR (either CD28z or CD2z; resulting in stable expression). The cells were subsequently stimulated with agonist mAbs anti-CD2, anti-CD3 and anti-CD28, and were later selected for genetic modification over the course of a 19 day culture period. At the end of the initial culture period all T cells expressed the CAR, indicating successful selection for genetically-modified cells (data not shown). Bars represent total live CAR-T cells in well and numbers indicate fold-enhancement of expansion above CAR-T cells produced in the absence of a CSR or a CD19 mRNA control.

T1 sequence (P62942 with tags, fused parts or gaps F37V): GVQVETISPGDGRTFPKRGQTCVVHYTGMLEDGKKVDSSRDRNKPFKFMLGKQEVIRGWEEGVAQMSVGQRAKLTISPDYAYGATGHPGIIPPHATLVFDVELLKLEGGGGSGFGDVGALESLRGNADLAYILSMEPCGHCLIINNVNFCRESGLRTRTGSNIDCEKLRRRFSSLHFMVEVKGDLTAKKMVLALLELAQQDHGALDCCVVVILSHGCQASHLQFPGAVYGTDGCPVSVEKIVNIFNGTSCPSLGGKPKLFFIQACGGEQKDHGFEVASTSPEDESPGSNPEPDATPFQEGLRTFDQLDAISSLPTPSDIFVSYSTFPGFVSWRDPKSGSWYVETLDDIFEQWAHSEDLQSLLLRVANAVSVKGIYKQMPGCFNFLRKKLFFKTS

In the case of `CC[C@H](C(=O)N1CCCC[C@H]1C(=O)O[C@H](CCc1ccc(OC)c(OC)c1)c1cccc(OCC(=O)NCCNC(=O)COc2cccc([C@@H](CCc3ccc(OC)c(OC)c3)OC(=O)[C@@H]3CCCCN3C(=O)[C@@H](CC)c3cc(OC)c(OC)c(OC)c3)c2)c1)c1cc(OC)c(OC)c(OC)c1` (relative stereo) [AP1903, 2-Piperidinecarboxylic acid, 1-[(2S)-1-oxo-2-(3,4,5-trimethoxyphenyl)butyl]-, 1,2-ethanediylbis[imino(2-oxo-2,1-ethanediyl)oxy-3,1-phenylene[(1R)-3-(3,4-dimethoxyphenyl)propylidene]]ester, [2S-[1(R*),2R*[S*[S*[1(R*),2R*]]]]]-(9C1)], the “amount needed in vitro for effective signaling of cells, converted” value (cells [1]) is listed as 16 to 160 µg/L, the “amount needed in vitro for effective signaling of cells” value (cells [2]) is listed as 10 to 100 nM and the safety and tolerability ([3]; 0.01, 0.05, 0.1, 0.5 and 1.0 mg/kg IV over 2 hours) is listed as “safe and well tolerated at all dose levels”. For the same molecule, the “mean Cmax” value ([3]; 0.01-1.0 mg/kg infused IV over 2 hours, healthy volunteers) was 10 to 1275 ng/mL, the “plasma levels versus dose” value ([3]; 0.01-1.0 mg/kg) was “directly proportional to dose” and the well-tolerated dose ([3]; Phase I study) was “up to 1 mg/kg”. The “plasma level as % of maximal concentration, 0.5 hours post-dose” value ([3]; after initial infusion period) was “approximately 18%”, the “plasma level as % of maximal concentration, 2 hours post-dose” value ([3]; after initial infusion period) was about 7% and the “plasma level as % of maximal concentration, 10 hours post-dose” value ([3]; after initial infusion period) was about 1%. The pharmacokinetic profile ([3]; human, in vivo) was “favorable pharmacokinetic profile” and the “concentration at which AP1903 induces apoptosis (lowest concentration of the study)” value (iC9 safety switch; T cells containing iC9 construct, 24 hours incubation) was at most 0.1 nM.

For “CD28z CSR: chimeric stimulatory receptor: wild type CD28 and CD3z intracellular stimulation domain, SEQ ID NO: 17910”, the “expansion of CAR-T cells” value (Pan T cells) was “a greater degree of expansion of the CAR-T cells”.

In the case of “iC9 safety switch: ligand binding region (FKBP12 F36V), a linker, and a truncated caspase 9 polypeptide (SEQ ID NO: 18032)”, the “apoptosis induced by presence of the iC9 safety switch” value (iC9 safety switch; with induction agent AP1903, by day 12 post-nucleofection) is reported as “induces apoptosis in a significant majority of cells”.

B1: CD2z CSR: chimeric stimulatory receptor: wild type CD2 and CD3z intracellular stimulation domain, SEQ ID NO: 17912 (protein)
chain: MSFPCKFVASFLLIFNVSSKGAVSKEITNALETWGALGQDINLDIPSFQMSDDIDDIKWEKTSDKKKIAQFRKEKETFKEKDTYKLFKNGTLKIKHLKTDDQDIYKVSIYDTKGKNVLEKIFDLKIQERVSKPKISWTCINTTLTCEVMNGTDPELNLYQDGKHLKLSQRVITHKWTTSLSAKFKCTAGNKVSKESSVEPVSCPEKGLDIYLIIGICGGGSLLMVFVALLVFYITKRKKQRSRRNDEELETRAHRVATEERGRKPHQIPASTPQNPATSQHPPPPPGHRSQAPSHRPPPPGHRVQHQPQKRPPAPSGTQVHQQKGPPLPRPRVQPKPPHGAAENSLSPSSNRVKFSRSADAPAYKQGQNQLYNELNLGRREEYDVLDKRRGRDPEMGGKPRRKNPQEGLYNELQKDKMAEAYSEIGMKGERRRGKGHDGLYQGLSTATKDTYDALHMQALPPR
For B1, the “expansion of CAR-T cells” value (Pan T cells) was “a greater degree of expansion of the CAR-T cells”.
